8 molecules from PubChem BioAssay (NCI) can be followed below.

The structures appear in SMILES notation.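 48-hour exposure; five concentrations; linearly interpolated endpoints. GI50 marks 50% less growth. TGI is the concentration that stops growth completely.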

Some test systems named below: 786-0 renal; NCI-H522 lung; NCI-H226 lung; NCI-H460 lung; CAKI-1 renal; SNB-75 CNS; UO-31 renal; T-47D breast; KM12 colon; OVCAR-3 ovarian.
Common to all, as to assay: NCI tumour cell line growth inhibition, 48 h

For the molecule `CC1(C)C(=O)/C=C\C(=O)C(C)(C)C(=O)/C=C\C(=O)C(C)(C)C2=CC=C(O2)C(C)(C)C(=O)/C=C\C1=O`, the TGI with 786-0 renal worked out at 12.7 µM; in the experiment on NCI-H522 lung, 2.22 µM; in the experiment on NCI-H226 lung, 18.1 µM; in the experiment with NCI-H460 lung, 46.8 µM; with CAKI-1 renal it was 7.91 µM; in the experiment on SNB-75 CNS it was 20.2 µM. In addition, the TGI is 28.3 µM with UO-31 renal, 18.5 µM in the experiment with T-47D breast, 19.8 µM with KM12 colon and 9.41 µM in the experiment on OVCAR-3 ovarian.
In the case of `CN1CCN(c2ccc(NC3=CC(=O)c4ncncc4C3=O)cc2)CC1`, the GI50 with 786-0 renal was 0.248 µM; with NCI-H522 lung it was 0.597 µM; in the experiment on NCI-H226 lung, 1.51 µM; in the experiment with NCI-H460 lung, 0.354 µM; in the experiment on CAKI-1 renal, 1.34 µM; with SNB-75 CNS, 1.7 µM. For the same molecule, the GI50 is 0.27 µM with UO-31 renal, 0.231 µM with T-47D breast, 1.67 µM in the experiment on KM12 colon and 0.313 µM in the experiment on OVCAR-3 ovarian. The TGI turned out to be 0.645 µM with 786-0 renal; 1.72 µM in the experiment with NCI-H522 lung; 3.47 µM with NCI-H226 lung; 1.22 µM in the experiment on NCI-H460 lung; 2.68 µM with CAKI-1 renal; 3.11 µM in the experiment on SNB-75 CNS. Besides, the results for the TGI in the experiment on UO-31 renal, in the experiment with T-47D breast and in the experiment with KM12 colon were 0.761 µM, 0.651 µM and 4.35 µM, respectively.
As to `COC(=O)c1cc2cc(/C=C3/SC(=S)N(N(C(C)=O)C(C)=O)C3=O)oc2n1Cc1ccccc1`, the GI50 is 21.1 µM in the experiment with 786-0 renal; 19.1 µM in the experiment with NCI-H522 lung; 21.9 µM in the experiment with NCI-H226 lung; 19.3 µM in the experiment with NCI-H460 lung; 14.2 µM in the experiment on CAKI-1 renal; 37.1 µM in the experiment on SNB-75 CNS. Besides, the GI50 in the experiment on UO-31 renal was 29.7 µM; with T-47D breast, > 100 µM; in the experiment on KM12 colon it was 27.8 µM; in the experiment with OVCAR-3 ovarian, 19.5 µM. The TGI in the experiment with 786-0 renal was 38.6 µM; in the experiment on NCI-H522 lung it was 48.6 µM; with NCI-H226 lung it was 45.2 µM; with NCI-H460 lung, > 100 µM; in the experiment on CAKI-1 renal, 40.8 µM; in the experiment with SNB-75 CNS it was > 100 µM. For the same molecule, the TGI is > 100 µM with UO-31 renal, > 100 µM in the experiment on T-47D breast, > 100 µM with KM12 colon and 51 µM in the experiment on OVCAR-3 ovarian.
Regarding `COc1cc(C(=O)n2nc(N)c3c(C)cc(C)nc32)cc(OC)c1OC`, the GI50 in the experiment with 786-0 renal was > 100 µM; with NCI-H522 lung, 10.8 µM; with NCI-H226 lung, > 100 µM; with NCI-H460 lung, > 100 µM; in the experiment with CAKI-1 renal, > 100 µM; with SNB-75 CNS, > 38.3 µM. The GI50 is > 100 µM in the experiment on UO-31 renal, > 65.4 µM in the experiment on T-47D breast, 10.4 µM with KM12 colon and > 88.9 µM in the experiment with OVCAR-3 ovarian. Besides, the TGI in the experiment on 786-0 renal, in the experiment with NCI-H522 lung, with NCI-H226 lung, in the experiment on NCI-H460 lung, in the experiment on CAKI-1 renal and in the experiment on SNB-75 CNS was > 100 µM throughout. Further, the TGI in the experiment with UO-31 renal, with T-47D breast, in the experiment on KM12 colon and in the experiment on OVCAR-3 ovarian was > 100 µM each time.
Turning to `N=C(CC(=O)Nc1ccccn1)c1ccccc1`, the TGI with 786-0 renal, in the experiment on NCI-H522 lung, with NCI-H226 lung, in the experiment with NCI-H460 lung, in the experiment on CAKI-1 renal and with SNB-75 CNS was > 100 µM in each case. The TGI with UO-31 renal, with T-47D breast, in the experiment on KM12 colon and in the experiment with OVCAR-3 ovarian was > 100 µM throughout.
Take `CC1=C[C@@H]2c3c(c(O)c(O)c4oc5cc(O)cc(O)c5c(=O)c34)[C@@H](c3cc(O)c(O)c4oc5cc(O)cc(O)c5c(=O)c34)[C@@H]2C(C)(C)C1`: the GI50 is 2.69 µM with 786-0 renal; 2.9 µM in the experiment on NCI-H522 lung; 3.82 µM with NCI-H226 lung; 1.1 µM with NCI-H460 lung; 3.93 µM in the experiment with CAKI-1 renal; 6.34 µM in the experiment with SNB-75 CNS. In addition, the GI50 with UO-31 renal was 3.83 µM; in the experiment with T-47D breast it was 4.6 µM; in the experiment on KM12 colon it was 3.1 µM; in the experiment on OVCAR-3 ovarian it was 3.33 µM. Besides, the TGI with 786-0 renal was found to be 11.5 µM; in the experiment with NCI-H522 lung it was 12.1 µM; in the experiment with NCI-H226 lung, 28.4 µM; in the experiment with NCI-H460 lung it was 8.31 µM; in the experiment with CAKI-1 renal, 14 µM; with SNB-75 CNS, 20.5 µM. Further, the TGI came to 16.3 µM in the experiment with UO-31 renal, 19.2 µM in the experiment with T-47D breast, 12.2 µM in the experiment on KM12 colon and 13.4 µM with OVCAR-3 ovarian.
As to `O=C1/C(=C/c2ccc([N+](=O)[O-])o2)Oc2ccc(Cl)cc21`, the GI50 with 786-0 renal was 2.72 µM; with NCI-H522 lung it was 1.31 µM; with NCI-H226 lung it was 1.78 µM; in the experiment with NCI-H460 lung, 3 µM; in the experiment on CAKI-1 renal it was 1.7 µM; in the experiment on SNB-75 CNS, 1.6 µM. The GI50 in the experiment with UO-31 renal was 1.35 µM; with T-47D breast it was 1.67 µM; in the experiment with KM12 colon, 1.88 µM; with OVCAR-3 ovarian, 1.7 µM. In addition, the TGI in the experiment on 786-0 renal turned out to be 7.06 µM; with NCI-H522 lung it was 2.79 µM; in the experiment with NCI-H226 lung, 3.97 µM; in the experiment on NCI-H460 lung it was 15.4 µM; with CAKI-1 renal, 3.61 µM; in the experiment with SNB-75 CNS it was 5.44 µM. The TGI in the experiment with UO-31 renal is 3.87 µM; with T-47D breast, 5.02 µM; in the experiment on KM12 colon, 3.68 µM; in the experiment on OVCAR-3 ovarian it was 3.19 µM.
Take `Fc1ccc(Nc2nc(Nc3ccc(-c4nc5ccccc5[nH]4)cc3)c3cn[nH]c3n2)cc1`: the GI50 in the experiment with 786-0 renal is 1.63 µM; in the experiment with NCI-H522 lung it was 1.61 µM; in the experiment on NCI-H226 lung, 2.62 µM; in the experiment with NCI-H460 lung it was 1.99 µM; in the experiment with CAKI-1 renal it was 1.97 µM; in the experiment with SNB-75 CNS it was 1.35 µM. The GI50 in the experiment with UO-31 renal was 1.62 µM; in the experiment on T-47D breast, 1.9 µM; in the experiment with KM12 colon, 1.64 µM; with OVCAR-3 ovarian it was 1.94 µM. The TGI in the experiment with 786-0 renal was determined as 3.11 µM; in the experiment on NCI-H522 lung, 4.02 µM; in the experiment on NCI-H226 lung, 7.07 µM; in the experiment with NCI-H460 lung it was 3.97 µM; with CAKI-1 renal, 5.41 µM; in the experiment with SNB-75 CNS, 3.57 µM. In addition, the TGI with UO-31 renal worked out at 4.32 µM; with T-47D breast, 5 µM; in the experiment on KM12 colon, 3.48 µM; with OVCAR-3 ovarian, 4.42 µM.
